Measurements from ChEMBL document CHEMBL1857833, “Screening and optimization of specific chemical series against human African Trypanosomiasis (HAT)”.
In brackets after ≈: the same amount, converted by molar mass. Several values for one entry are separate records, joined by “and”; a condition that tells them apart may be missing. Identical values can stand only once.

Tests used:
[1] = molecular target: T1, MDR1 (ABCB1) (Homo sapiens, UniProt P08183); assay: DNDI: Efflux ratio for permeability from basolateral to apical side to apical to basolateral side of MDCK cells transfected with human MDR1; assay type: ADME, cell-based, Canis lupus familiaris; settings: dog
[2] = in vitro; settings: mouse, t (1 / 2)
Description: (§4) DNDI: half life in mouse liver microsomes at a concentration of 1uM

[3] = molecular target: T1, MDR1 (ABCB1); assay: DNDI: % of compound recovered from apical to basolateral permeability assay in MDCK cells transfected with human MDR1; assay type: ADME, cell-based, Canis lupus familiaris; settings: dog
[4] = DNDI: in vitro intrinsic clearance in human liver microsomes at a concentration of 10uM; assay type: ADME, Microsome
[5] = DNDI: Cytotoxicity against L-6 rat myoblasts from skeletal muscle cells; assay type: toxicity, cell-based, L6; settings: L-6 rat skeletal muscle myoblasts
[6] = mouse, microsomes, 1 µM
Description: (§5) DNDI: in vitro intrinsic clearance in mouse liver microsomes at a concentration of 1uM

[7] = DNDI: in vitro intrinsic clearance in mouse liver microsomes at a concentration of 10uM; assay type: ADME, Microsome; settings: read-out: CLint in vitro
[8] = molecular target: T1, MDR1 (ABCB1); assay: DNDI: Apparent permeability from basolateral to apical side of the MDCK cell transfected with human MDR1 after 60 mins at a concentration of 3uM; assay type: ADME, cell-based, Canis lupus familiaris; settings: dog
[9] = molecular target: T1, MDR1 (ABCB1); assay: DNDI: Apparent permeability from apical to basolateral side of the MDCK cell transfected with human MDR1; assay type: ADME, cell-based, Canis lupus familiaris; settings: dog
[10] = test system: Trypanosoma cruzi; assay: DNDI: Inhibition of Chagas Disease parasite Trypanosoma cruzi (Tulahuen LacZ, Clone C4), in vitro.; assay type: functional, organism-based
[11] = test system: Trypanosoma brucei rhodesiense; assay: DNDI: Inhibition of Human African Trypanosomiasis (HAT), STIB 900, in vitro; assay type: functional, organism-based
[12] = molecular target: T1, MDR1 (ABCB1); assay: DNDI: % of compound recovered from basolateral to apical permeability assay in MDCK cells transfected with human MDR1; assay type: ADME, cell-based, Canis lupus familiaris; settings: dog
[13] = DNDI: Lipophilicity measured in Chromatographic hydrophobicity index (CHI) assay, pH 7.4; assay type: physicochemical; settings: buffer
[14] = test system: Leishmania donovani; assay: DNDI: Inhibition of formation of Leishmania donovani (strain MHOM/ET/67/L82) axenic amastigotes, in vitro.; assay type: functional, organism-based
[15] = DNDI: half life in mouse liver microsomes at a concentration of 10uM; assay type: ADME, Microsome
[16] = test system: Trypanosoma brucei; assay: DNDI: Inhibition of Human African Trypanosomiasis, EATRO 110, in vitro; assay type: functional, organism-based
[17] = (§1) DNDI: Cytotoxicity against L929 mouse fibroblasts, CYTO-SP, 24 hour; assay type: toxicity, cell-based; settings: mouse, L929 mouse fibroblasts
[18] = DNDI: half life in human liver microsomes at a concentration of 10uM; assay type: ADME, Microsome
[19] = test system: Plasmodium falciparum; assay: DNDI: Inhibition of the malaria parasite Plasmodium falciparum, in vitro; assay type: functional, organism-based; settings: K1
[20] = DNDI: Solubility in phosphate buffered saline at pH7.4 measured by optical density (turbidimetry) at room temperature (OD-RT); assay type: physicochemical; settings: pH 7.4
[21] = test system: Trypanosoma brucei; assay: DNDI: Inhibition of Human African Trypanosomiasis, Cross 22, in vitro; assay type: functional, organism-based
[22] = (§2) DNDI: Cytotoxicity against L929 mouse fibroblasts, 72 hour.; assay type: toxicity, cell-based; settings: mouse, L929 mouse fibroblasts
[23] = test system: Trypanosoma brucei; assay: DNDI: Inhibition of Human African Trypanosomiasis, SBRI 427, in vitro; assay type: functional, organism-based
[24] = test system: L929; assay: as §1; assay type: toxicity, cell-based; settings: l929
[25] = test system: L929; assay: as §2; assay type: toxicity, cell-based; settings: l929
[26] = DNDI: half-life in mouse S9 microsomes at a concentration of 1uM; assay type: ADME, subcellular, Liver, S9 fraction
[27] = molecular target: T1, MDR1 (ABCB1); assay: DNDI: Apparent permeability from apical to basolateral side of the MDCK cell transfected with human MDR1after 60 mins at a concentration of 3uM; assay type: ADME, cell-based, Canis lupus familiaris; settings: dog, MDCK-MDR1
[28] = DNDI: Solubility in phosphate buffered saline at pH7.4 measured by nephelometry at room temperature (NEPH-RT); assay type: physicochemical; settings: pH 7.4
[29] = molecular target: T1, MDR1 (ABCB1); assay: DNDI: % of compound recovered from apical to basolateral permeability assay in MDCK cells transfected with human MDR1 after 60 mins at a concentration of 3uM in the presence of GF120918; assay type: ADME, cell-based, Canis lupus familiaris; settings: dog, MDCK-MDR1, with GF120918 (concentration not stated)
[30] = DNDI: half-life in mouse S9 microsomes at a concentration of 10uM; assay type: ADME, subcellular, Liver, S9 fraction
[31] = molecular target: T1, MDR1 (ABCB1); assay: DNDI: % of compound recovered from apical to basolateral permeability assay in MDCK cells transfected with human MDR1 after 60 mins at a concentration of 3uM; assay type: ADME, cell-based, Canis lupus familiaris; settings: dog
[32] = mouse, microsomes, 1 µM; remark: listed apart in the source
Description: as §4

[33] = in vitro; settings: mouse, liver microsomes
Description: as §5

[34] = test system: Trypanosoma brucei; assay: (§3) DNDI: Mean survival time in days (MSD) of mice after intraperitoneal injection of Human African Trypanosomiasis (HAT), EATRO 110, in vivo at 20 mg/kg/day for 4 days.; assay type: functional, Mus musculus
[35] = in vitro; settings: human, liver microsomes, CLint in vitro
Description: DNDI: in vitro intrinsic clearance in human liver microsomes at a concentration of 1uM

[36] = in vitro; settings: human, liver microsomes, t (1 / 2)
Description: DNDI: half life in human liver microsomes at a concentration of 1uM

[37] = test system: Trypanosoma brucei; assay: DNDI: Mean survival time in days (MSD) of mice after intraperitoneal injection of Human African Trypanosomiasis (HAT), EATRO 110, in vivo at 5 mg/kg/day for 4 days.; assay type: functional, Mus musculus
[38] = test system: Trypanosoma brucei; assay: as §3; assay type: functional, Mus musculus; remark: listed apart in the source
[39] = Trypanosoma brucei, SBRI 427, read-out: IC50

T1 sequence (P08183 whole entry): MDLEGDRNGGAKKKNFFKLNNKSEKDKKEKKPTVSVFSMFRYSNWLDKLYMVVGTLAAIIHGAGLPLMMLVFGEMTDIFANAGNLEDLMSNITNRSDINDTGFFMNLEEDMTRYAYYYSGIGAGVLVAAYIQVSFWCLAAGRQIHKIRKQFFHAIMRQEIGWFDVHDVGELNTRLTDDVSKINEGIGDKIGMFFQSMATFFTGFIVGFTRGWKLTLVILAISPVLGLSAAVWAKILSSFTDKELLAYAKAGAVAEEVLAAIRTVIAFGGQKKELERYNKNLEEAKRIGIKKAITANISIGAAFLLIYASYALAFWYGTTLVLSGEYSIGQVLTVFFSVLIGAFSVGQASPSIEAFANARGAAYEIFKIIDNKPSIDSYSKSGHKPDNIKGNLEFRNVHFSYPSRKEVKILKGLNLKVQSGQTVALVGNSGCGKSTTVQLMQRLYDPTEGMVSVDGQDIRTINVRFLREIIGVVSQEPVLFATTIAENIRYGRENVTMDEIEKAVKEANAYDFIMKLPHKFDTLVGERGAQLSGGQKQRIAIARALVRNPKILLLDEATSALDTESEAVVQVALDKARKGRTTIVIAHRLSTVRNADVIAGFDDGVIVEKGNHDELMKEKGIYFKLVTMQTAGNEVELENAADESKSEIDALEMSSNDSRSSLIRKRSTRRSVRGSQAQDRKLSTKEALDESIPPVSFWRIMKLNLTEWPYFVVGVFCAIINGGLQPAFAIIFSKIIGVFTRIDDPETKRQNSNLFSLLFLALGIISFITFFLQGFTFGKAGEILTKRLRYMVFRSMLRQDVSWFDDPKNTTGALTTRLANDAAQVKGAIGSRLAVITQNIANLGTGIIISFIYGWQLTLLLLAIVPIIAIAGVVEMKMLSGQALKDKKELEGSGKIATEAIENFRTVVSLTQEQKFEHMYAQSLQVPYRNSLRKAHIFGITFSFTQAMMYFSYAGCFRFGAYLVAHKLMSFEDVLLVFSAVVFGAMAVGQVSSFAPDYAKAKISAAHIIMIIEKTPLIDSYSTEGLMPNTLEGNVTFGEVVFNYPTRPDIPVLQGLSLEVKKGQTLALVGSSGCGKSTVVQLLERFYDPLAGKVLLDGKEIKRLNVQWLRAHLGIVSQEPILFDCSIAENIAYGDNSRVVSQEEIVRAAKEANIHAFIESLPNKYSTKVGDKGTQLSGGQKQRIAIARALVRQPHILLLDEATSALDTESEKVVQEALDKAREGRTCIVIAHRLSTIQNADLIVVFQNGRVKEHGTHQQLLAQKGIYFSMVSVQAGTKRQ

Row | SMILES | half-life at 1 µM ([2]; liver microsomes) | IC50 [5] | CLint in vitro [6] | IC50 [10] | IC50 [11] | chromatographic logD [13] | IC50 [14] | IC50 at 24 h [17] | IC50 [19] | IC50 [21] | IC50 at 72 h [22] | IC50 [23, 39] | IC50 [25] | solubility kinetic [28] | other results
1 | CCCCCC(C)NCc1coc(-c2ccc(OCC)cc2)n1 (centres undefined) | 23 min | 8.28 µg/mL (≈ 26.2 µM) | 36 µL/min/mg | 7.7 µg/mL (≈ 24.3 µM) | 0.342 µg/mL (≈ 1.08 µM) | 4.95 | 12.3 µg/mL (≈ 38.8 µM) | > 50 µg/mL | 1.38 µg/mL (≈ 4.36 µM) | 0.67 µg/mL (≈ 2.12 µM) | 5.27 µg/mL (≈ 16.7 µM) |  |  |  | efflux ratio ([1]; read-out: B-A/A-B): 1; recovery [3]: 33%; CLint in vitro [4]: 33 µL/min/mg; microsomal CLint at 10 µM [7]: 3 µL/min/mg; Papp B→A at 1 h, 3 µM [8]: 22 ×10⁻⁶ cm/s; Papp A→B [9]: 20.9 ×10⁻⁶ cm/s; recovery [12]: 56%; half-life at 10 µM [15]: 882 min; IC50 [16]: 0.8 µg/mL (≈ 2.53 µM); half-life at 10 µM [18]: 88 min; solubility kinetic [20]: 32 µM (≈ 10.1 µg/mL)
2 | CCOc1ccc(-c2nc(CNC3CC(C)CC(C)(C)C3)co2)cc1 (centres undefined) | 17 min |  | 50 µL/min/mg |  |  |  |  | 44.1 µg/mL (≈ 129 µM) |  | 0.79 µg/mL (≈ 2.31 µM) | < 3.13 µg/mL | 1.23 µg/mL (≈ 3.59 µM) |  |  | IC50 [23]: 0.79 µg/mL and 1.06 µg/mL and 1.41 µg/mL and 0.84 µg/mL; IC50 [16]: 1.03 µg/mL (≈ 3.01 µM); IC50 [24]: 29.3 µg/mL (≈ 85.6 µM)
3 | CCCCc1ccc(-c2nc(CNCC(C)(C)CN(C)C)co2)cc1 |  |  |  |  |  |  |  |  |  |  | 4.92 µg/mL (≈ 14.3 µM) | 1.55 µg/mL (≈ 4.51 µM) | 2.73 µg/mL (≈ 7.95 µM) |  | 
4 | Cc1cc(N2CCNCC2)n2nc(-c3cccc(F)c3)cc2n1 |  |  |  |  |  | 3.44 |  |  |  |  | 9.09 µg/mL (≈ 29.2 µM) | > 5 µg/mL |  | 50 µM (≈ 15.6 µg/mL) | half-life at 1 µM [26]: 45.7 min; Papp A→B at 1 h, 3 µM [27]: 45.2 ×10⁻⁶ cm/s; recovery at 1 h, 3 µM [29]: 63.6%; half-life at 10 µM [30]: 214 min; recovery at 1 h, 3 µM [31]: 70.4%
5 | CCCCc1ccc(-c2nc(CNCC(O)CN)co2)cc1 (centres undefined) |  |  |  |  |  |  |  |  |  |  | 2.91 µg/mL (≈ 9.59 µM) | 0.6 µg/mL (≈ 1.98 µM) | 3.31 µg/mL (≈ 10.9 µM) |  | 
6 | O/N=C(/NC1CCCCC1)c1cccnc1Oc1ccccc1 |  | 43.9 µg/mL (≈ 141 µM) | 423 µL/min/mg | > 30 µg/mL | 27.6 µg/mL (≈ 88.6 µM) | 3.92 | 44 µg/mL (≈ 141 µM) | > 50 µg/mL | 4.2 µg/mL (≈ 13.5 µM) |  | > 10 µg/mL | 1.17 µg/mL (≈ 3.76 µM) |  |  | efflux ratio ([1]; read-out: B-A/A-B): 1.7; half-life at 1 µM ([2]; microsomes): 2 min; recovery [3]: 66%; CLint in vitro [4]: 9 µL/min/mg; microsomal CLint at 10 µM [7]: 275 µL/min/mg; Papp B→A at 1 h, 3 µM [8]: 51.4 ×10⁻⁶ cm/s; Papp A→B [9]: 30.9 ×10⁻⁶ cm/s; recovery [12]: 83%; half-life at 10 µM [15]: 11 min; half-life at 10 µM [18]: 314 min; solubility kinetic [20]: 63 µM (≈ 19.6 µg/mL)
7 | CCCCc1ccc(-c2nc(CNC3CC(C)CC(C)(C)C3)co2)cc1 (centres undefined) | 192 min | 1.73 µg/mL (≈ 4.88 µM) | 3 µL/min/mg | 2 µg/mL (≈ 5.64 µM) | 0.348 µg/mL (≈ 0.982 µM) | 5.99 | 5.26 µg/mL (≈ 14.8 µM) | > 50 µg/mL | 0.521 µg/mL (≈ 1.47 µM) | 0.34 µg/mL (≈ 0.959 µM) | 0.64 µg/mL (≈ 1.81 µM) |  | 1.26 µg/mL (≈ 3.55 µM) | 6 µM (≈ 2.13 µg/mL) | t (1 / 2) [32]: 251 min and 224 min; microsomal CLint at 1 µM [33]: 4 µL/min/mg; MSD [34]: 2.5 days; microsomal CLint at 1 µM [35]: 14 µL/min/mg; half-life at 1 µM [36]: 59 min; MSD [37]: 4 days; MSD [38]: 4 days
8 | Cc1cc(NCCCN2CCOCC2)n2nc(-c3cccc(F)c3)cc2n1 |  |  |  |  |  | 4.44 |  |  |  |  | > 10 µg/mL | > 5 µg/mL |  | 25 µM (≈ 9.24 µg/mL) | efflux ratio ([1]; MDCK-MDR1, read-out: Calculated Ratio): 0.12; half-life at 1 µM [26]: 35 min; Papp A→B at 1 h, 3 µM [27]: 36.1 ×10⁻⁶ cm/s; recovery at 1 h, 3 µM [29]: 85%; recovery at 1 h, 3 µM [31]: 91%
9 | CCCCc1ccc(-c2nc(CNCC(C)(C)CN)co2)cc1 |  |  |  |  |  |  |  |  |  |  | 1.81 µg/mL (≈ 5.74 µM) | 0.39 µg/mL (≈ 1.24 µM) | 2.96 µg/mL (≈ 9.38 µM) |  | 
